# Results: article PMC9927415, “Tyrosine Kinase Inhibitors Display Potent Activity against Cryptosporidium parvum” (Microbiology Spectrum, 2022)
# Like-named read-outs stand apart in the source and are kept apart here.
# Key:
# Assay in all cases: KINOMEscan competitive binding
# [1] = target: T1, CSNK1D (Homo sapiens, UniProt P48730)
# T1 construct: purchased DiscoverX (KINOMEscan)
# Excerpt: (§1) The kinases were expressed as fusions to T7 bacteriophage. This is a sensitive, competitive binding assay where test compounds were used to displace immobilized ATP-site binding probe ligands from kinases of interest. The amount of kinase that remained bound to the immobilized probe ligands on the solid support was quantified. Percentage inhibition data were was plotted on kinome trees using the web-based tool KinMap (http://www.kinhub.org/kinmap) ([60]).
# [2] = target: T2, MERTK (Homo sapiens, UniProt Q12866)
# T2 construct: purchased DiscoverX (KINOMEscan)
# T2 sequence (Q12866 21-999): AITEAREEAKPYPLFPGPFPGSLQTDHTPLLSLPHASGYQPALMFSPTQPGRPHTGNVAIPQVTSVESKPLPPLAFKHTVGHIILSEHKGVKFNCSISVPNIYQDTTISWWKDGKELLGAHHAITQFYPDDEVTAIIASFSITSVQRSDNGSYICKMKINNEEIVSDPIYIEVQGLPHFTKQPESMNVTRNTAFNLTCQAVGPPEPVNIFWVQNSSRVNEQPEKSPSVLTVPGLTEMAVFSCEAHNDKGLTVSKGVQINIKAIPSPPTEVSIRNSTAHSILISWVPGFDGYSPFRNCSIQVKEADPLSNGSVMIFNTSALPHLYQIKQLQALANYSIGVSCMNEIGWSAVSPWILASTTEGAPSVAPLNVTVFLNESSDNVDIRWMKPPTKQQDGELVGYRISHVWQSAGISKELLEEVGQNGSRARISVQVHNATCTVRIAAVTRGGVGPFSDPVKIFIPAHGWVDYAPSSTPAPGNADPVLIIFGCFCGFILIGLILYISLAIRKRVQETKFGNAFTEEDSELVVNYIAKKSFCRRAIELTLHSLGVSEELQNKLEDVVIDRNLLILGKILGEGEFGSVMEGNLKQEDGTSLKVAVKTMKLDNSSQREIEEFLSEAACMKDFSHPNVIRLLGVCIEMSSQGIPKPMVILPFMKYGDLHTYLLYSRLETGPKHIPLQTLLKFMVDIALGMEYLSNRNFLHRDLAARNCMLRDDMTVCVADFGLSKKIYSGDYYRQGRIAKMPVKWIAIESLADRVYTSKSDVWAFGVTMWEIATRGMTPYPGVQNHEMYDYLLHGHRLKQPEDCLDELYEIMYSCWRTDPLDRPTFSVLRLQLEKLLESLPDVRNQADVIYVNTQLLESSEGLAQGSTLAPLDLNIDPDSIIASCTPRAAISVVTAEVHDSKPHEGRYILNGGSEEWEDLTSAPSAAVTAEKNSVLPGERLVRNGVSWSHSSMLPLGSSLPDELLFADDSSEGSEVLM
# Excerpt: as §1
# [3] = target: T3, CSNK2A1 (Homo sapiens, UniProt P68400)
# T3 construct: purchased DiscoverX (KINOMEscan)
# T3 sequence (P68400 whole entry): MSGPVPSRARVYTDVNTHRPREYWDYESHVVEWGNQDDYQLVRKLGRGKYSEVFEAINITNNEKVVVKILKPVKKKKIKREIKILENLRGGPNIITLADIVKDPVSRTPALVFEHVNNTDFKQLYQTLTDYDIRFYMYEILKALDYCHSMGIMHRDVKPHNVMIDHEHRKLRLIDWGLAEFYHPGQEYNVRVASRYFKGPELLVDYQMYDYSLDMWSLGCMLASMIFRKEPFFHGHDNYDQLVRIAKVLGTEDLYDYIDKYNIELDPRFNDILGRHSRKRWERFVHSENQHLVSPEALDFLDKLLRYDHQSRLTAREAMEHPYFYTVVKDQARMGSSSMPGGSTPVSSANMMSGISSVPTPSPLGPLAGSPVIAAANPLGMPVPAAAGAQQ
# Excerpt: as §1
# [4] = target: T4, CLK2 (Homo sapiens, UniProt P49760)
# T4 construct: purchased DiscoverX (KINOMEscan)
# T4 sequence (P49760 whole entry): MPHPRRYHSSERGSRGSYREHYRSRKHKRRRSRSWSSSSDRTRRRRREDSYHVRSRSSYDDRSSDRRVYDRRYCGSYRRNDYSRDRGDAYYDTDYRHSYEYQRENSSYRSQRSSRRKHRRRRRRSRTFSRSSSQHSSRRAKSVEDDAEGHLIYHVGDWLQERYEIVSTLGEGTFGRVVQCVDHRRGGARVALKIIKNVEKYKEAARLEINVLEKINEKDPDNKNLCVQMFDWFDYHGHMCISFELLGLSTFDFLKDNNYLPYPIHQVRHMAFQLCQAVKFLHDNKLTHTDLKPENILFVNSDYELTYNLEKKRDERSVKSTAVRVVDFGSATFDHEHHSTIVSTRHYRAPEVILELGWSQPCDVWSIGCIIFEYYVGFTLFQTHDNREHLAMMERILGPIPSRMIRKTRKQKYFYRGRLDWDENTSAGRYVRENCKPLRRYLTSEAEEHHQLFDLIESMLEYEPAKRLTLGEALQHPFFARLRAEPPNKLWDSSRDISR
# Excerpt: as §1
# [5] = target: T5, CDK5 (Homo sapiens, UniProt Q00535)
# T5 construct: purchased DiscoverX (KINOMEscan)
# T5 sequence (Q00535 whole entry): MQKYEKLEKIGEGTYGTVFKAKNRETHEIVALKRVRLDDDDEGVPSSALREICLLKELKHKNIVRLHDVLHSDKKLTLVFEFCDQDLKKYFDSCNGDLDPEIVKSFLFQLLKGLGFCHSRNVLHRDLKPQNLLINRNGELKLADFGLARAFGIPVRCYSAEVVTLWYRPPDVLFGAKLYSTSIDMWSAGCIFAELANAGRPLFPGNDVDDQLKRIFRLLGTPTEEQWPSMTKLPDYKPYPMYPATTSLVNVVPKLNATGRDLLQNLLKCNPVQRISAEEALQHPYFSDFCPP
# Excerpt: as §1
# [6] = target: T6, PDGFRβ (Homo sapiens, UniProt P09619)
# T6 construct: purchased DiscoverX (KINOMEscan)
# T6 sequence (P09619 33-1106): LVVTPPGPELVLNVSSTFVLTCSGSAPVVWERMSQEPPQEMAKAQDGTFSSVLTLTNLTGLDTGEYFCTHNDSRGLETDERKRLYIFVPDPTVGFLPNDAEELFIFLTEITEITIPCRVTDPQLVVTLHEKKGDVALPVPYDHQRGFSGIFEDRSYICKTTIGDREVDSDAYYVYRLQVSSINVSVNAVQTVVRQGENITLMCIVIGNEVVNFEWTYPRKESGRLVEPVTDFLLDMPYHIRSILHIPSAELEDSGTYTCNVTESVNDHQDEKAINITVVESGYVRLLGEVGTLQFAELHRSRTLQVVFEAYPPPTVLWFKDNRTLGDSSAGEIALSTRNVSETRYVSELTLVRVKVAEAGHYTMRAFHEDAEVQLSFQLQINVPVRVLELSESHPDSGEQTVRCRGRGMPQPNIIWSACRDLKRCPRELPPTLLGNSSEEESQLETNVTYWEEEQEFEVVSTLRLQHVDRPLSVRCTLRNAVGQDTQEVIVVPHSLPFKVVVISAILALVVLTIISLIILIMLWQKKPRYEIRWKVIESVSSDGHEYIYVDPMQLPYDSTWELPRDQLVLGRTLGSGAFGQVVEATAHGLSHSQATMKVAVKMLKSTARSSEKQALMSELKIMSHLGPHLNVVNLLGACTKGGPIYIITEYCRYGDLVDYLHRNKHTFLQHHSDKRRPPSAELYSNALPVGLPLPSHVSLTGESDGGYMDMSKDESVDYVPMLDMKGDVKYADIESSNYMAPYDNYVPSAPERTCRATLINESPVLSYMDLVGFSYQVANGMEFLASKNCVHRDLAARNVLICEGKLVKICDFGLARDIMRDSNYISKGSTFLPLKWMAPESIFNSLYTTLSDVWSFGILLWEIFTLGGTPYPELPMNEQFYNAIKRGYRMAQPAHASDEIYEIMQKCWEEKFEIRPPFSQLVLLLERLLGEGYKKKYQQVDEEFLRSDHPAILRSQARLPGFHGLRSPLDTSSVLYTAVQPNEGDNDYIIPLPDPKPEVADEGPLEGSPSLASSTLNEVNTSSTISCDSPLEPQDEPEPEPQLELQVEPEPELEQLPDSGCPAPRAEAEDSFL
# Excerpt: as §1
# [7] = target: T7, CSNK1E (Homo sapiens, UniProt P49674)
# T7 construct: purchased DiscoverX (KINOMEscan)
# T7 sequence (P49674 whole entry): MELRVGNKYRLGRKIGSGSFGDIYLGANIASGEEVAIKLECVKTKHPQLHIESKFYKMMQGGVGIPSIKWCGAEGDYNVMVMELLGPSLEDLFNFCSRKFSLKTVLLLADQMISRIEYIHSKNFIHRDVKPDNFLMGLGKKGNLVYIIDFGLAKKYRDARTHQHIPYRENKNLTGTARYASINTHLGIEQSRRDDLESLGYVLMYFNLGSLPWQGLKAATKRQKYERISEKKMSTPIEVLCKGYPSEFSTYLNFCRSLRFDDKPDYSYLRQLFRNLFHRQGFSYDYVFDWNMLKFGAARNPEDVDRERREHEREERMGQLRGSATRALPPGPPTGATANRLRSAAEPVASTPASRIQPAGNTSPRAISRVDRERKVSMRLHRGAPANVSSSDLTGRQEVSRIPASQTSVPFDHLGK
# Excerpt: as §1
# [8] = target: T8, PDGFRα (Homo sapiens, UniProt P16234)
# T8 construct: purchased DiscoverX (KINOMEscan)
# T8 sequence (P16234 24-1089): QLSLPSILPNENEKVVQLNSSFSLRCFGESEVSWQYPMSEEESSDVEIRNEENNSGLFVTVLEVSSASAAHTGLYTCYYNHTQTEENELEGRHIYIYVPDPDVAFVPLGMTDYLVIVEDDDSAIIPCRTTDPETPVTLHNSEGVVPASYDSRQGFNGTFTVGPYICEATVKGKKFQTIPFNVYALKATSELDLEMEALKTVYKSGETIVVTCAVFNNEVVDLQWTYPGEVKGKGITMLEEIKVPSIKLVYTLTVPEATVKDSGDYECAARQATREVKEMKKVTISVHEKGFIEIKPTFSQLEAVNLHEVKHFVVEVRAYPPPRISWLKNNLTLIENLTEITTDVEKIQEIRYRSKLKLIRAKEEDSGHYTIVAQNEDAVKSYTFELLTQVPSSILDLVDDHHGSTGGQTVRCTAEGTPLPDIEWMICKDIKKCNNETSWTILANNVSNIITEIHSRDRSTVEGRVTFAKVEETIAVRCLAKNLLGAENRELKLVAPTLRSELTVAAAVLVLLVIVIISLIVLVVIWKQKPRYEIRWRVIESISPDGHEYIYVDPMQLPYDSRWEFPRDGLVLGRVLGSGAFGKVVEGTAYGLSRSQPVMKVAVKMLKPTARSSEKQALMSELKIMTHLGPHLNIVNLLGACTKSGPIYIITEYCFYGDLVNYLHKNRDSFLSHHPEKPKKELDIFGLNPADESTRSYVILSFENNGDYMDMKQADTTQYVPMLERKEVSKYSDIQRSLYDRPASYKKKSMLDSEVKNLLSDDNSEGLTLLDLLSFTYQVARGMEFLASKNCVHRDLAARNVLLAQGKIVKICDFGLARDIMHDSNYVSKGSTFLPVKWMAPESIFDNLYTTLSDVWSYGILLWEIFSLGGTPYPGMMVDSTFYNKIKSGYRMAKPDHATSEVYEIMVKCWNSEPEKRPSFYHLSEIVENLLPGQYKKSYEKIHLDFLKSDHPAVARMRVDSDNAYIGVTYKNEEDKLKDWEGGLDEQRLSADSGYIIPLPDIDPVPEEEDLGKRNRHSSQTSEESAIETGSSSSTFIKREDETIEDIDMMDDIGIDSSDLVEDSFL
# Excerpt: as §1
# [9] = target: T9, FLT3 (Homo sapiens, UniProt P36888)
# T9 construct: purchased DiscoverX (KINOMEscan)
# T9 sequence (P36888 27-993): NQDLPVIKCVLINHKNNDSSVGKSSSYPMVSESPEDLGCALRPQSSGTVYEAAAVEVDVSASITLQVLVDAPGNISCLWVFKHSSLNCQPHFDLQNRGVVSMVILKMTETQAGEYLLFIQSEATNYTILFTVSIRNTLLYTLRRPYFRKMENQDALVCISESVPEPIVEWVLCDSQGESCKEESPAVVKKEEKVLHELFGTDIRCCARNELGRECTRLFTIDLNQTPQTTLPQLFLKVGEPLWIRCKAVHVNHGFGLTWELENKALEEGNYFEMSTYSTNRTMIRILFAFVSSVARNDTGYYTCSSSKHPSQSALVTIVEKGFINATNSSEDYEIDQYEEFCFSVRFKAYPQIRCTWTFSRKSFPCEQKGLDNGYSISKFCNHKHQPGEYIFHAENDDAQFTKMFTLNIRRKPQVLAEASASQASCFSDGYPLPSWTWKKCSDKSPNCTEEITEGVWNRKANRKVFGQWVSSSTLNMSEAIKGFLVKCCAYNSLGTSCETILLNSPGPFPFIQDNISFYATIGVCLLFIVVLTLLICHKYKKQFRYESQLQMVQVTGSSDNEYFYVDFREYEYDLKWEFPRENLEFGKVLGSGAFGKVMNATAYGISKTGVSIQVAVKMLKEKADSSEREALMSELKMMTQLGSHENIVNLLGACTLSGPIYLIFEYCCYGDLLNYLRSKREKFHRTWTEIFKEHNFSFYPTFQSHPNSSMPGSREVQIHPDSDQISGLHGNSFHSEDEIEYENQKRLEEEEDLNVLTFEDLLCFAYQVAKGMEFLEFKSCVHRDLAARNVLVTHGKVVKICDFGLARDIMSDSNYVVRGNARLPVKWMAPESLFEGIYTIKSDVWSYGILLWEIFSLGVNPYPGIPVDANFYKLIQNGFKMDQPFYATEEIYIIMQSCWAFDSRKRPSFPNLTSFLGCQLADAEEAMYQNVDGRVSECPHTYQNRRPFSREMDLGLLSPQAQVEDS
# Excerpt: as §1
# [10] = target: T10, JAK1(JH2) (Homo sapiens, UniProt P23458)
# T10 construct: JAK1(JH2); purchased DiscoverX (KINOMEscan)
# T10 sequence (P23458 583-855 limits assumed): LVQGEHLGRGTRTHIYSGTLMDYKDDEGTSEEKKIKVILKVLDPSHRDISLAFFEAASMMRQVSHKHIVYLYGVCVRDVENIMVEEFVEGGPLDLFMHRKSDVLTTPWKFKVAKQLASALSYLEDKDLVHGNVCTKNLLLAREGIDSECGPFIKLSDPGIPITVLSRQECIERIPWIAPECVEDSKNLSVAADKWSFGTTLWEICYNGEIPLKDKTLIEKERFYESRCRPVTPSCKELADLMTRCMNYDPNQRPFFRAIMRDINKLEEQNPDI
# Excerpt: as §1
# [11] = target: T11, PLK1 (Homo sapiens, UniProt P53350); settings: n=1, read-out: Percent inhibition, PLK1
# T11 construct: purchased DiscoverX (KINOMEscan)
# T11 sequence (P53350 whole entry): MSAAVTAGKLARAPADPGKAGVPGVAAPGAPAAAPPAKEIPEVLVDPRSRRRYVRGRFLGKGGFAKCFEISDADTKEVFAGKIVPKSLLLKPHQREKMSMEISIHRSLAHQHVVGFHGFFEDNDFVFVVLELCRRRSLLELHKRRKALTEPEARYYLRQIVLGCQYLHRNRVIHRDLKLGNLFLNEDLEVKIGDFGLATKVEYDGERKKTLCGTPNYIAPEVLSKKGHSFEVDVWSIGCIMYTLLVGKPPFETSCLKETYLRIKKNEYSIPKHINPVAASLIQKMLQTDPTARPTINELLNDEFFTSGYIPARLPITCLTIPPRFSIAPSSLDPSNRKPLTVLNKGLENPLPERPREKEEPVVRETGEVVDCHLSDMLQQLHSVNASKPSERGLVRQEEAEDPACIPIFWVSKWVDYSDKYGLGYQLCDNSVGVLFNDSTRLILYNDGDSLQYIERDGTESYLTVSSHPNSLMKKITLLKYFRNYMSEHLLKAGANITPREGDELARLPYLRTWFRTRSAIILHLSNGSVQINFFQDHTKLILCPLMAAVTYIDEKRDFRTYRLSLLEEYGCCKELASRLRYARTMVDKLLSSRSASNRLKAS
# Excerpt: as §1
# [12] = 10 µM, n=1, kinase CSNK1D, read-out: Percent inhibition CSNK1D
# [13] = 10 µM, n=1, kinase MERTK, read-out: Percent inhibition MERTK
# [14] = 10 µM, n=1, kinase CSNK2A1, read-out: Percent inhibition CSNK2A1
# [15] = 10 µM, n=1, kinase CLK2, read-out: Percent inhibition CLK2
# [16] = 10 µM, n=1, kinase CDK5, read-out: Percent inhibition CDK5
# [17] = KINOMEscan, 10 µM, n=1, read-out: Percent inhibition, PDGFRB
# [18] = 10 µM, n=1, kinase CSNK1E, read-out: Percent inhibition CSNK1E
# [19] = KINOMEscan, 10 µM, n=1, read-out: Percent inhibition, PDGFRA
# [20] = 10 µM, n=1, kinase FLT3, read-out: Percent inhibition FLT3
# [21] = 10 µM, n=1, kinase JAK1(Kin.Dom.1), read-out: Percent inhibition JAK1(Kin.Dom.1)
# [22] = 10 μM, n = 1, read-out: percent inhibition CDK5
# [23] = 10 μM, n = 1, read-out: percent inhibition PDGFRα
# [24] = 10 μM, n = 1, read-out: percent inhibition FLT3
Structure (SMILES),"inhibition at 10 µM [1, 12] [%]","inhibition at 10 µM [2, 13] [%]","inhibition at 10 µM [3, 14] [%]","inhibition at 10 µM [4, 15] [%]","inhibition at 10 µM [5, 16] [%]","inhibition at 10 µM [6, 17] [%]","inhibition at 10 µM [7, 18] [%]","inhibition at 10 µM [8, 19] [%]","inhibition at 10 µM [9, 20] [%]","inhibition at 10 µM [10, 21] [%]",inhibition at 10 µM [11] [%],also measured
C[C@@H](Oc1cc(-c2cnc3ccccn23)sc1C(N)=O)c1ccccc1Cl [Compound 8],0,87.6,94.6,0,0,0,71.7,0,98.6,87.8,,
Cc1ccc(O)cc1N(C)c1ccnc(Nc2cccc(S(N)(=O)=O)c2)n1 [Compound 4],100,77.6,0,84.5,0,100,100,100,92.3,0,0,
COc1cc(Nc2nccc(-c3sc(N)nc3-c3cccc(NC(=O)c4c(F)cccc4F)c3)n2)cc(OC)c1OC [Compound 7],76.3,99.6,0,0,0,100,99.9,100,99.8,0,0,
CN1CCN(c2ccc(Nc3nccc(-c4cnn5ncccc45)n3)cc2C#N)CC1 [Compound 1],100,98.7,100,100,99.5,100,100,100,100,100,0,"inhibition at 10 µM [5, 22]: > 99%"
Fc1cccc(COc2ccc(Nc3ncnc4c3CN(CCN3CCOCC3)CC4)cc2Cl)c1 [Compound 6],0,0,0,0,0,0,0,0,0,0,0,
Cc1ccc(O)cc1Nc1ccnc(Nc2cccc(C(N)=O)c2)n1 [Compound 3],100,0,0,91.5,0,100,100,99.2,89,0,0,
Clc1ccc(Nc2ncc(-c3ccccc3)s2)cc1 [Compound 10],0,0,0,0,0,99.9,0,98.9,97.1,0,0,"inhibition at 10 µM ([6]; 10 μM, n = 1, read-out: percent inhibition PDGFRβ): > 99%; inhibition at 10 µM [8, 23]: > 90%; inhibition at 10 µM [9, 24]: > 90%"
COc1ccc(Nc2nccc(-c3cnn4ncccc34)n2)cc1 [Compound 2],100,65.9,82,99.9,99.8,100,100,99.9,99.3,95.5,97.2,"inhibition at 10 µM [5, 22]: > 99%"
c1ccc(COc2cccc(-c3ccnc4[nH]ccc34)c2)cc1 [Compound 9],0,94.1,100,0,0,0,0,0,91.1,0,0,"inhibition at 10 µM ([2]; 10 μM, n = 1, read-out: percent inhibition MERTK): ≥ 90%; inhibition at 10 µM ([3]; 10 μM, n = 1, read-out: percent inhibition CSNK2A1): ≥ 99%; inhibition at 10 µM [9, 24]: ≥ 90%"
Nc1ncc2c(-c3ccncc3)c[nH]c2n1 [Compound 11],99.9,0,0,99.9,0,93.2,100,100,94.5,99,0,"inhibition at 10 µM ([1]; 10 μM, n = 1, read-out: percent inhibition CSNK1D): ≥ 99%; inhibition at 10 µM ([4]; 10 μM, n = 1, read-out: percent inhibition CLK2): ≥ 99%; inhibition at 10 µM ([7]; 10 μM, n = 1, read-out: percent inhibition CSNK1E): ≥ 99%; inhibition at 10 µM [8, 23]: ≥ 99%; inhibition at 10 µM ([10]; 10 μM, n = 1, read-out: percent inhibition JAK1(JH2)): ≥ 99%"
